Assay results as given in ChEMBL document CHEMBL1146171, “Discovery and initial development of a novel class of antibacterials: inhibitors of Staphylococcus aureus transcription/translation” (Bioorg Med Chem Lett, 2006).
Converted amounts (≈) assume the structure as drawn.

Experiments:
Assay type in all cases: functional
Staphylococcus aureus [1] = experiment: Antibacterial activity against Staphylococcus aureus
Staphylococcus aureus [2] = experiment: Inhibition of coupled transcription/translation in Staphylococcus aureus at 100 uM; details: for inhibition at 100 µM / IC50: Staphylococcus aureus
Staphylococcus aureus [3] = experiment: Inhibition of coupled transcription/translation in Staphylococcus aureus at 30 uM
[4] = Staphylococcus aureus, read-out: MIC

Row | Structure (SMILES) | MIC (Staphylococcus aureus [1]; [4]) [µg/mL] | inhibition at 100 µM (Staphylococcus aureus [2]) [%] | IC50 (Staphylococcus aureus [2]) [µM] | inhibition at 30 µM (Staphylococcus aureus [3]) [%] | MIC (Staphylococcus aureus [1]) [µg/mL] | Inhibition (Staphylococcus aureus [2]) [%]
1 | CN(c1ccc(Cl)cc1)S(=O)(=O)c1ccc(C(=O)Nc2ccc(Cl)cc2C(=O)O)cc1 | 16 (≈ 33.4 µM) | 85 |  |  |  | 
2 | CCCN(c1ccccc1)S(=O)(=O)c1ccc(C(=O)Nc2ccc(Br)cc2C(=O)O)cc1 | 16 (≈ 30.9 µM) | 80 |  |  |  | 
3 | CCCN(CCC)S(=O)(=O)c1ccc(C(=O)Nc2c(OC)cc(OC)cc2C(=O)O)cc1 | > 128 | 0 |  |  |  | 
4 | CCCN(c1ccccc1)S(=O)(=O)c1ccc(C(=O)Nc2ccc(Cl)cc2C(=O)O)cc1 | 32 (≈ 67.7 µM) | 50 |  |  |  | 
5 | CN(c1ccc(Cl)cc1)S(=O)(=O)c1ccc(C(=O)Nc2cc(Cl)ccc2C(=O)O)cc1 | 64 (≈ 134 µM) | 47 |  |  |  | 
6 | O=C(Nc1ccc(Br)cc1C(=O)O)c1ccc(S(=O)(=O)N2CC3CCC2CC3)cc1 | 8 (≈ 16.2 µM) | 57 |  |  |  | 
7 | Cc1cc(Br)ccc1NC(=O)c1ccc(S(=O)(=O)N(C)c2ccc(Cl)cc2)cc1 | > 128 | 12 |  |  |  | 
8 | O=C(Nc1ccc(Br)cc1C(=O)O)c1ccc(S(=O)(=O)N2CCc3ccccc3C2)cc1 | 8 (≈ 15.5 µM) | 84 | 60 |  |  | 
9 | COc1ccc(N(C)S(=O)(=O)c2ccc(C(=O)Nc3ccc(Br)cc3C(=O)O)cc2)cc1 | 32 (≈ 61.6 µM) | 50 |  |  |  | 
10 | COc1ccc(NC(=O)c2ccc(S(=O)(=O)Nc3cccc(C(F)(F)F)c3)cc2)c(C(=O)O)c1 | > 128 | 35 |  |  |  | 
11 | CCCN(CCC)S(=O)(=O)c1ccc(C(=O)Nc2ccc3ccccc3c2)cc1 | > 128 | 10 |  |  |  | 
12 | O=C(Nc1ccc(Br)cc1C(=O)O)c1ccc(S(=O)(=O)N2CCCC23CCC(O)CC3)cc1 (stereo unspecified) | 8 (≈ 14.9 µM) | 22 |  |  |  | 
13 | COC(=O)c1cc(Br)ccc1NC(=O)c1ccc(S(=O)(=O)Nc2cccc(OCc3ccccc3)c2)cc1 | > 128 | 4 |  |  |  | 
14 | O=C(Nc1ccc(Br)cc1C(=O)O)c1ccc(S(=O)(=O)N2CCC[C@@H]2CO)cc1 | > 128 | 19 |  |  |  | 
15 | Cl.O=C(Nc1ccc(Br)cc1C(=O)O)c1ccc(S(=O)(=O)N2CCCCC2)cc1 | 16 | 34 |  |  |  | 
16 | CCCN(CCC)S(=O)(=O)c1ccc(C(=O)Nc2cc3ccccc3cc2C(=O)O)cc1 | 64 (≈ 141 µM) | 30 |  |  |  | 
17 | O=C(Nc1ccc(Br)cc1C(=O)O)c1ccc(S(=O)(=O)N2CC3CCCC(C3)C2)cc1 | 4 (≈ 7.88 µM) | 88 | 60 |  |  | 
18 | CCCN(CCC)S(=O)(=O)c1ccc(C(=O)Nc2ccc(Br)cc2C(=O)O)cc1 | 8 (≈ 16.5 µM) | 61 |  |  |  | 
19 | O=C(Nc1ccc(Br)cc1C(=O)O)c1cc(S(=O)(=O)Nc2ccc3c(c2)OCCO3)ccc1Br | 0.5 (≈ 0.817 µM) |  |  | 15 |  | 
20 | CN(c1ccc(Cl)cc1)S(=O)(=O)c1ccc(C(=O)Nc2ccc(F)cc2C(=O)O)cc1 | > 128 | 30 |  |  |  | 
21 | CC1(c2ccccc2)CCCN(S(=O)(=O)c2ccc(C(=O)Nc3ccc(Br)cc3C(=O)O)cc2)C1 (stereo unspecified) | 16 (≈ 28.7 µM) | 96 | 30 |  |  | 
22 | CC1(C)Cc2ccccc2N1S(=O)(=O)c1ccc(C(=O)Nc2ccc(Br)cc2C(=O)O)cc1 | 2 (≈ 3.78 µM) | 87 | 55 |  |  | 

Row | Structure (SMILES) | MIC (Staphylococcus aureus [1]; [4]) [µg/mL] | inhibition at 100 µM (Staphylococcus aureus [2]) [%] | IC50 (Staphylococcus aureus [2]) [µM] | inhibition at 30 µM (Staphylococcus aureus [3]) [%] | MIC (Staphylococcus aureus [1]) [µg/mL] | Inhibition (Staphylococcus aureus [2]) [%]
23 | Cc1ccc(C(=O)Nc2ccc(Br)cc2C(=O)O)cc1S(=O)(=O)NC1Cc2ccccc2C1 | 0.25 (≈ 0.472 µM) |  |  | 20 |  | 
24 | O=C(Nc1ccc(Br)cc1C(=O)O)c1ccc(S(=O)(=O)N2CCC(c3ccccc3)CC2)cc1 | 8 (≈ 14.7 µM) | 96 | 55 |  |  | 
25 | N#Cc1cccc(NS(=O)(=O)c2ccc(C(=O)Nc3ccc(Br)cc3C(=O)O)cc2)c1 | 64 (≈ 128 µM) | 30 |  |  |  | 
26 | O=C(Nc1ccc(Br)cc1C(=O)O)c1ccc(S(=O)(=O)N2CCc3cc(Cl)ccc32)cc1 | 1 (≈ 1.87 µM) | 71 | 80 |  |  | 
27 | CCCN(c1ccccc1)S(=O)(=O)c1ccc(C(=O)Nc2ccc(C)cc2C(=O)O)cc1 | 128 (≈ 283 µM) | 34 |  |  |  | 
28 | O=C(Nc1cc(F)c(F)cc1C(=O)O)c1ccc(S(=O)(=O)Nc2cccc(C(F)(F)F)c2)cc1 | > 128 | 55 |  |  |  | 
29 | CCCN(CCC)S(=O)(=O)c1ccc(C(=O)Nc2cc3ccccc3cc2O)cc1 | > 128 | 10 |  |  |  | 
30 | O=C(Nc1ccc(Br)cc1C(=O)O)c1ccc(S(=O)(=O)N2CCC(Nc3ccccc3)CC2)cc1 | 32 (≈ 57.3 µM) | 62 |  |  |  | 
31 | O=C(Nc1ccc(Br)cc1C(=O)O)c1ccc(S(=O)(=O)N2CCc3ccc(Cl)cc32)cc1 | 1 (≈ 1.87 µM) | 96 | 40 | 93 | 0.5 (≈ 0.933 µM) | 
32 | CCCN(c1ccccc1)S(=O)(=O)c1ccc(C(=O)Nc2ccc(I)cc2C(=O)O)cc1 | 16 (≈ 28.3 µM) | 90 |  |  |  | 
33 | O=C(Nc1ccc(Br)cc1C(=O)O)c1ccc(S(=O)(=O)N2Cc3ccccc3C2)cc1 | 4 (≈ 7.98 µM) | 77 |  |  |  | 
34 | O=C(Nc1ccc(Br)cc1C(=O)O)c1ccc(S(=O)(=O)Nc2cccc(OCc3ccccc3)c2)cc1 | 8 (≈ 13.8 µM) | 75 |  |  |  | 
35 | COc1cccc(NS(=O)(=O)c2ccc(C(=O)Nc3ccc(Br)cc3C(=O)O)cc2)c1 | 16 (≈ 31.7 µM) | 20 |  |  |  | 
36 | O=C(Nc1ccc(Br)cc1C(=O)O)c1ccc(S(=O)(=O)N2CCCCC2)cc1 | 16 (≈ 34.2 µM) |  |  |  |  | 35
37 | O=C(Nc1ccc(Br)cc1C(=O)O)c1ccc(S(=O)(=O)Nc2ccc(Cl)cc2)cc1 | 16 (≈ 31.4 µM) | 45 |  |  |  | 
38 | O=C(Nc1ccc(Br)cc1C(=O)O)c1ccc(S(=O)(=O)N2CCCC23CCCCC3)cc1 | 4 (≈ 7.67 µM) | 90 | 60 |  |  | 
39 | O=C(Nc1ccc(Br)cc1C(=O)O)c1ccc(S(=O)(=O)N2CCC(Cc3ccccc3)CC2)cc1 | 16 (≈ 28.7 µM) | 98 | 28 |  |  | 
40 | CN(c1ccc(Cl)cc1)S(=O)(=O)c1ccc(C(=O)Nc2ccc(Cl)c(C(=O)O)c2)cc1 | > 128 | 10 |  |  |  | 
41 | CN(c1ccc(Cl)cc1)S(=O)(=O)c1ccc(C(=O)Nc2ccc(Br)cc2C(=O)O)cc1 | 8 (≈ 15.3 µM) | 75 |  |  | 16 (≈ 30.5 µM) | 80
42 | O=C(Nc1ccc(Br)cc1C(=O)O)c1ccc(S(=O)(=O)Nc2cccc(C(F)(F)F)c2)cc1 | 8 (≈ 14.7 µM) | 65 |  |  |  | 
43 | O=C(Nc1ccc(Br)cc1C(=O)O)c1cc(S(=O)(=O)NC2Cc3ccccc3C2)ccc1Br | 0.25 (≈ 0.421 µM) |  |  | 30 |  | 
44 | COCCN(CCOC)S(=O)(=O)c1ccc(C(=O)Nc2ccc(Br)cc2C(=O)O)cc1 | 32 (≈ 62.1 µM) | 10 |  |  |  | 
